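All cell lines were grown in 96-well plates and treated with compound for 48 hours. GI50: concentration for 50% inhibition of growth.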 The source made the active and inactive calls. Cut-off read from the data, not from the text of the source: active = GI50 up to about 1.1 µM and inactive = higher.
Columns and labels:
Assay in all cases: inhibition of tumour cell growth, NCI panel, 48 h
LOX IMVI = test system: LOX IMVI
OVCAR-4 = test system: OVCAR-4
SF-268 = test system: SF-268
MDA-MB-231 = test system: MDA-MB-231
SK-MEL-2 = test system: SK-MEL-2
RPMI-8226 = test system: RPMI-8226
HCT-116 = test system: HCT-116
SK-MEL-28 = test system: SK-MEL-28
DU-145 = test system: DU-145
OVCAR-8 = test system: OVCAR-8
786-0 = test system: 786-0
COLO 205 = test system: COLO 205
CAKI-1 = test system: CAKI-1
SF-539 = test system: SF-539
HL-60 = test system: HL-60
NCI/ADR-RES = test system: NCI/ADR-RES
UACC-62 = test system: UACC-62
A498 = test system: A498
SK-OV-3 = test system: SK-OV-3
MCF7 = test system: MCF7
T47D = test system: T47D
Malme-3M = test system: Malme-3M
HCC 2998 = test system: HCC 2998
M14 = test system: M14
TK-10 = test system: TK-10
HT-29 = test system: HT-29
UO-31 = test system: UO-31
SW-620 = test system: SW-620
HOP-62 = test system: HOP-62
HOP-92 = test system: HOP-92
MDA-N = test system: MDA-N
RXF 393 = test system: RXF 393
MDA-MB-435 = test system: MDA-MB-435
ACHN = test system: ACHN
MOLT-4 = test system: MOLT-4
NCI-H226 = test system: NCI-H226
NCI-H522 = test system: NCI-H522
NCI-H23 = test system: NCI-H23
EKVX = test system: EKVX
OVCAR-5 = test system: OVCAR-5
SN12C = test system: SN12C
Hs-578T = test system: Hs-578T
SK-MEL-5 = test system: SK-MEL-5
A549 = test system: A549
KM12 = test system: KM12
SF-295 = test system: SF-295
OVCAR-3 = test system: OVCAR-3
SNB-19 = test system: SNB-19
BT-549 = test system: BT-549
UACC-257 = test system: UACC-257
K562 = test system: K562
NCI-H460 = test system: NCI-H460
SR = test system: SR
HCT-15 = test system: HCT-15
U-251 = test system: U-251

For NS(=O)(=O)c1nnc(NC(=O)CCC(=O)O)s1, the GI50 (LOX IMVI) was > 100 µM (inactive), the GI50 (OVCAR-4) was > 100 µM (inactive) and the GI50 (SF-268) was > 100 µM (inactive). The GI50 (MDA-MB-231) was > 100 µM (inactive), the GI50 (SK-MEL-2) was > 100 µM (inactive) and the GI50 (RPMI-8226) was > 100 µM (inactive). The GI50 (HCT-116) was > 100 µM (inactive), the GI50 (SK-MEL-28) was > 100 µM (inactive) and the GI50 (DU-145) was > 100 µM (inactive). The GI50 (OVCAR-8) was > 100 µM (inactive), the GI50 (786-0) was > 100 µM (inactive) and the GI50 (COLO 205) was > 100 µM (inactive). The GI50 (CAKI-1) was > 100 µM (inactive), the GI50 (SF-539) was > 100 µM (inactive) and the GI50 (HL-60) was > 100 µM (inactive). For the same molecule, the GI50 (NCI/ADR-RES) was > 100 µM (inactive), the GI50 (UACC-62) was > 100 µM (inactive) and the GI50 (A498) was > 100 µM (inactive). For the same molecule, the GI50 (SK-OV-3) was > 100 µM (inactive), the GI50 (MCF7) was > 100 µM (inactive) and the GI50 (T47D) was > 100 µM (inactive). The GI50 (Malme-3M) was > 100 µM (inactive), the GI50 (HCC 2998) was > 100 µM (inactive) and the GI50 (M14) was > 100 µM (inactive). For the same molecule, the GI50 (TK-10) was > 100 µM (inactive), the GI50 (HT-29) was > 100 µM (inactive) and the GI50 (UO-31) was > 100 µM (inactive). The GI50 (SW-620) was > 100 µM (inactive), the GI50 (HOP-62) was > 100 µM (inactive) and the GI50 (HOP-92) was > 100 µM (inactive). The GI50 (MDA-N) was > 100 µM (inactive), the GI50 (RXF 393) was > 100 µM (inactive) and the GI50 (MDA-MB-435) was > 100 µM (inactive). For the same molecule, the GI50 (ACHN) was > 100 µM (inactive), the GI50 (MOLT-4) was > 100 µM (inactive) and the GI50 (NCI-H226) was > 100 µM (inactive). The GI50 (NCI-H522) was > 100 µM (inactive), the GI50 (NCI-H23) was > 100 µM (inactive) and the GI50 (EKVX) was > 100 µM (inactive). The GI50 (OVCAR-5) was > 100 µM (inactive), the GI50 (SN12C) was > 100 µM (inactive) and the GI50 (Hs-578T) was > 100 µM (inactive). For the same molecule, the GI50 (SK-MEL-5) was > 100 µM (inactive), the GI50 (A549) was > 100 µM (inactive) and the GI50 (KM12) was > 100 µM (inactive). For the same molecule, the GI50 (SF-295) was > 100 µM (inactive), the GI50 (OVCAR-3) was > 100 µM (inactive) and the GI50 (SNB-19) was > 100 µM (inactive). The GI50 (BT-549) was > 100 µM (inactive), the GI50 (UACC-257) was > 100 µM (inactive) and the GI50 (K562) was > 100 µM (inactive). For the same molecule, the GI50 (NCI-H460) was > 100 µM (inactive), the GI50 (SR) was > 100 µM (inactive) and the GI50 (HCT-15) was greater than 100 µM. The GI50 (U-251) was > 100 µM (inactive).
